In ChEMBL document CHEMBL5303573, “Mapping human microbiome drug metabolism by gut bacteria and their genes” (Nature, 2019):

What was measured:
[1] = bacteroides thetaiotaomicron, 12 h, 2 µM
[2] = The drug is tested on Eubacterium ventriosum strain: ATCC27560 for biotransformation. The drug concentrations were measured before and after a 12-h incubation by liquid-chromatography-coupled mass spectrometry (LC–MS); assay type: ADME; set-up: dose 2 uM, timepoint 0 vs 12 hours; details: 2 µM
[3] = The drug is tested on Blautia luti strain: DSM14534 for biotransformation. The drug concentrations were measured before and after a 12-h incubation by liquid-chromatography-coupled mass spectrometry (LC–MS); assay type: ADME; set-up: dose 2 uM, timepoint 0 vs 12 hours; details: 2 µM
[4] = The drug is tested on Bacteroides pectinophilus strain: ATCC43243 for biotransformation. The drug concentrations were measured before and after a 12-h incubation by liquid-chromatography-coupled mass spectrometry (LC–MS); details: 2 µM
[5] = The drug is tested on Providencia stuartii strain: ATCC25827 for biotransformation. The drug concentrations were measured before and after a 12-h incubation by liquid-chromatography-coupled mass spectrometry (LC–MS); details: 2 µM
[6] = The drug is tested on Bacteroides fragilis strain: ATCC43859 for biotransformation. The drug concentrations were measured before and after a 12-h incubation by liquid-chromatography-coupled mass spectrometry (LC–MS); details: 2 µM
[7] = The drug is tested on Clostridium ramosum strain: DSM1402 for biotransformation. The drug concentrations were measured before and after a 12-h incubation by liquid-chromatography-coupled mass spectrometry (LC–MS); details: thomasclavelia ramosa, 2 µM
[8] = The drug is tested on Blautia hansenii strain: DSM20583 for biotransformation. The drug concentrations were measured before and after a 12-h incubation by liquid-chromatography-coupled mass spectrometry (LC–MS); details: 2 µM
[9] = The drug is tested on Bacteroides finegoldii strain: DSM17565 for biotransformation. The drug concentrations were measured before and after a 12-h incubation by liquid-chromatography-coupled mass spectrometry (LC–MS); details: 2 µM
[10] = segatella copri, 12 h, 2 µM
[11] = bacteroides fragilis, 12 h, 2 µM
[12] = The drug is tested on Collinsella intestinalis strain: DSM13280 for biotransformation. The drug concentrations were measured before and after a 12-h incubation by liquid-chromatography-coupled mass spectrometry (LC–MS); details: 2 µM
[13] = The drug is tested on Clostridium sporogenes strain: ATCC15579 for biotransformation. The drug concentrations were measured before and after a 12-h incubation by liquid-chromatography-coupled mass spectrometry (LC–MS); details: 2 µM
[14] = enterocloster bolteae, 12 h, 2 µM
[15] = The drug is tested on Coprococcus comes strain: ATCC27758 for biotransformation. The drug concentrations were measured before and after a 12-h incubation by liquid-chromatography-coupled mass spectrometry (LC–MS); assay type: ADME; set-up: dose 2 uM, timepoint 0 vs 12 hours; details: 2 µM
[16] = akkermansia muciniphila, 12 h, 2 µM
[17] = bacteroides thetaiotaomicron, 12 h, 2 µM; remark: listed apart in the source
[18] = The drug is tested on Bacteroides xylanisolvens strain: DSM18836 for biotransformation. The drug concentrations were measured before and after a 12-h incubation by liquid-chromatography-coupled mass spectrometry (LC–MS); details: 2 µM
[19] = The drug is tested on Alistipes indistinctus strain: DSM22520 for biotransformation. The drug concentrations were measured before and after a 12-h incubation by liquid-chromatography-coupled mass spectrometry (LC–MS); details: 2 µM

For `O=C(O)CCC(=O)O.O=C(O[C@H]1CN2CCC1CC2)N1CCc2ccccc2[C@@H]1c1ccccc1` [SOLIFENACIN SUCCINATE], the “Bacterial Biotransformation” value [1] was “Compound NOT metabolized”, the “Bacterial Biotransformation” value [2] was “Compound NOT metabolized” and the “Bacterial Biotransformation” value [3] was “Compound NOT metabolized”. The “Bacterial Biotransformation” value [4] was “Compound NOT metabolized”, the “Bacterial Biotransformation” value [5] was “Compound NOT metabolized” and the “Bacterial Biotransformation” value [6] was “Compound NOT metabolized”. The “Bacterial Biotransformation” value [7] was “Compound NOT metabolized”, the “Bacterial Biotransformation” value [8] was “Compound NOT metabolized” and the “Bacterial Biotransformation” value [9] was “Compound NOT metabolized”. For the same molecule, the “Bacterial Biotransformation” value [10] was “Compound NOT metabolized”, the “Bacterial Biotransformation” value [11] was “Compound NOT metabolized” and the “Bacterial Biotransformation” value [12] was “Compound NOT metabolized”. The “Bacterial Biotransformation” value [13] was “Compound NOT metabolized”, the “Bacterial Biotransformation” value [14] was “Compound NOT metabolized” and the “Bacterial Biotransformation” value [15] was “Compound NOT metabolized”. The “Bacterial Biotransformation” value [16] was “Compound NOT metabolized” and the “Bacterial Biotransformation” value [17] was “Compound NOT metabolized”.

With `O=C([O-])C[C@H](O)C[C@H](O)/C=C/c1c(C2CC2)nc2ccccc2c1-c1ccc(F)cc1.O=C([O-])C[C@H](O)C[C@H](O)/C=C/c1c(C2CC2)nc2ccccc2c1-c1ccc(F)cc1.[Ca+2]` [PITAVASTATIN CALCIUM] the “Bacterial Biotransformation” value [1] was “Compound NOT metabolized”, the “Bacterial Biotransformation” value [2] was “Compound NOT metabolized” and the “Bacterial Biotransformation” value [3] was “Compound NOT metabolized”. The “Bacterial Biotransformation” value [4] was “Compound NOT metabolized”, the “Bacterial Biotransformation” value [6] was “Compound NOT metabolized” and the “Bacterial Biotransformation” value [7] was “Compound NOT metabolized”. The “Bacterial Biotransformation” value [8] was “Compound NOT metabolized”, the “Bacterial Biotransformation” value [10] was “Compound NOT metabolized” and the “Bacterial Biotransformation” value [11] was “Compound NOT metabolized”. For the same molecule, the “Bacterial Biotransformation” value [12] was “Compound NOT metabolized”, the “Bacterial Biotransformation” value [18] was “Compound NOT metabolized” and the “Bacterial Biotransformation” value [14] was “Compound NOT metabolized”. For the same molecule, the “Bacterial Biotransformation” value [19] was “Compound NOT metabolized”, the “Bacterial Biotransformation” value [15] was “Compound NOT metabolized” and the “Bacterial Biotransformation” value [16] was “Compound NOT metabolized”. For the same molecule, the “Bacterial Biotransformation” value [17] was “Compound NOT metabolized”.

In the case of `CC(CN1c2ccccc2Sc2ccccc21)N(C)C` (configuration not stated) [PROMETHAZINE], the “Bacterial Biotransformation” value [2] was “Compound NOT metabolized”, the “Bacterial Biotransformation” value [3] was “Compound NOT metabolized” and the “Bacterial Biotransformation” value [4] was “Compound NOT metabolized”. The “Bacterial Biotransformation” value [5] was “Compound NOT metabolized”, the “Bacterial Biotransformation” value [6] was “Compound NOT metabolized” and the “Bacterial Biotransformation” value [7] was “Compound NOT metabolized”. For the same molecule, the “Bacterial Biotransformation” value [8] was “Compound NOT metabolized”, the “Bacterial Biotransformation” value [9] was “Compound NOT metabolized” and the “Bacterial Biotransformation” value [10] was “Compound NOT metabolized”. For the same molecule, the “Bacterial Biotransformation” value [11] was “Compound NOT metabolized”, the “Bacterial Biotransformation” value [12] was “Compound NOT metabolized” and the “Bacterial Biotransformation” value [18] was “Compound NOT metabolized”. The “Bacterial Biotransformation” value [13] was “Compound NOT metabolized”, the “Bacterial Biotransformation” value [14] was “Compound NOT metabolized” and the “Bacterial Biotransformation” value [15] was “Compound NOT metabolized”. For the same molecule, the “Bacterial Biotransformation” value [16] was “Compound NOT metabolized” and the “Bacterial Biotransformation” value [17] was “Compound NOT metabolized”.

In the case of `CCOc1ccc(NC(C)=O)cc1` [PHENACETIN], the “Bacterial Biotransformation” value [1] was “Compound NOT metabolized”, the “Bacterial Biotransformation” value [2] was “Compound NOT metabolized” and the “Bacterial Biotransformation” value [3] was “Compound NOT metabolized”. For the same molecule, the “Bacterial Biotransformation” value [4] was “Compound NOT metabolized”, the “Bacterial Biotransformation” value [6] was “Compound NOT metabolized” and the “Bacterial Biotransformation” value [8] was “Compound NOT metabolized”. The “Bacterial Biotransformation” value [9] was “Compound NOT metabolized”, the “Bacterial Biotransformation” value [10] was “Compound NOT metabolized” and the “Bacterial Biotransformation” value [11] was “Compound NOT metabolized”. For the same molecule, the “Bacterial Biotransformation” value [12] was “Compound NOT metabolized”, the “Bacterial Biotransformation” value [18] was “Compound NOT metabolized” and the “Bacterial Biotransformation” value [13] was “Compound NOT metabolized”. The “Bacterial Biotransformation” value [14] was “Compound NOT metabolized”, the “Bacterial Biotransformation” value [19] was “Compound NOT metabolized” and the “Bacterial Biotransformation” value [15] was “Compound NOT metabolized”. The “Bacterial Biotransformation” value [16] was “Compound NOT metabolized” and the “Bacterial Biotransformation” value [17] was “Compound NOT metabolized”.

With `Cc1ccc(S(=O)(=O)NC(=O)NN2CCCCCC2)cc1` [TOLAZAMIDE] the “Bacterial Biotransformation” value [1] was “Compound metabolized”, the “Bacterial Biotransformation” value [2] was “Compound NOT metabolized” and the “Bacterial Biotransformation” value [3] was “Compound NOT metabolized”. For the same molecule, the “Bacterial Biotransformation” value [4] was “Compound metabolized”, the “Bacterial Biotransformation” value [6] was “Compound metabolized” and the “Bacterial Biotransformation” value [7] was “Compound NOT metabolized”. The “Bacterial Biotransformation” value [8] was “Compound metabolized”, the “Bacterial Biotransformation” value [10] was “Compound metabolized” and the “Bacterial Biotransformation” value [11] was “Compound metabolized”. For the same molecule, the “Bacterial Biotransformation” value [12] was “Compound NOT metabolized”, the “Bacterial Biotransformation” value [18] was “Compound metabolized” and the “Bacterial Biotransformation” value [14] was “Compound NOT metabolized”. For the same molecule, the “Bacterial Biotransformation” value [19] was “Compound NOT metabolized”, the “Bacterial Biotransformation” value [15] was “Compound NOT metabolized” and the “Bacterial Biotransformation” value [17] was “Compound metabolized”.

With `COc1cc2nc(N3CCN(C(=O)c4ccco4)CC3)nc(N)c2cc1OC` [PRAZOSIN] the “Bacterial Biotransformation” value [1] was “Compound NOT metabolized”, the “Bacterial Biotransformation” value [2] was “Compound NOT metabolized” and the “Bacterial Biotransformation” value [3] was “Compound NOT metabolized”. For the same molecule, the “Bacterial Biotransformation” value [4] was “Compound NOT metabolized”, the “Bacterial Biotransformation” value [5] was “Compound NOT metabolized” and the “Bacterial Biotransformation” value [6] was “Compound NOT metabolized”. For the same molecule, the “Bacterial Biotransformation” value [7] was “Compound NOT metabolized”, the “Bacterial Biotransformation” value [8] was “Compound NOT metabolized” and the “Bacterial Biotransformation” value [9] was “Compound NOT metabolized”. For the same molecule, the “Bacterial Biotransformation” value [10] was “Compound NOT metabolized”, the “Bacterial Biotransformation” value [11] was “Compound NOT metabolized” and the “Bacterial Biotransformation” value [12] was “Compound NOT metabolized”. The “Bacterial Biotransformation” value [18] was “Compound NOT metabolized”, the “Bacterial Biotransformation” value [14] was “Compound NOT metabolized” and the “Bacterial Biotransformation” value [15] was “Compound NOT metabolized”. The “Bacterial Biotransformation” value [16] was “Compound NOT metabolized” and the “Bacterial Biotransformation” value [17] was “Compound NOT metabolized”.

For `O=C(CCCN1CCC2(CC1)C(=O)NCN2c1ccccc1)c1ccc(F)cc1` [SPIPERONE], the “Bacterial Biotransformation” value [2] was “Compound NOT metabolized”, the “Bacterial Biotransformation” value [3] was “Compound NOT metabolized” and the “Bacterial Biotransformation” value [4] was “Compound NOT metabolized”. For the same molecule, the “Bacterial Biotransformation” value [6] was “Compound NOT metabolized”, the “Bacterial Biotransformation” value [7] was “Compound NOT metabolized” and the “Bacterial Biotransformation” value [8] was “Compound NOT metabolized”. For the same molecule, the “Bacterial Biotransformation” value [9] was “Compound NOT metabolized”, the “Bacterial Biotransformation” value [10] was “Compound NOT metabolized” and the “Bacterial Biotransformation” value [11] was “Compound NOT metabolized”. For the same molecule, the “Bacterial Biotransformation” value [12] was “Compound NOT metabolized”, the “Bacterial Biotransformation” value [18] was “Compound NOT metabolized” and the “Bacterial Biotransformation” value [14] was “Compound NOT metabolized”. For the same molecule, the “Bacterial Biotransformation” value [19] was “Compound NOT metabolized”, the “Bacterial Biotransformation” value [16] was “Compound NOT metabolized” and the “Bacterial Biotransformation” value [17] was “Compound NOT metabolized”.

For `N=C(N)NC(=O)Cc1c(Cl)cccc1Cl` [GUANFACINE], the “Bacterial Biotransformation” value [3] was “Compound NOT metabolized”, the “Bacterial Biotransformation” value [4] was “Compound NOT metabolized” and the “Bacterial Biotransformation” value [5] was “Compound NOT metabolized”. For the same molecule, the “Bacterial Biotransformation” value [6] was “Compound NOT metabolized”, the “Bacterial Biotransformation” value [7] was “Compound NOT metabolized” and the “Bacterial Biotransformation” value [8] was “Compound NOT metabolized”. The “Bacterial Biotransformation” value [9] was “Compound NOT metabolized”, the “Bacterial Biotransformation” value [11] was “Compound NOT metabolized” and the “Bacterial Biotransformation” value [12] was “Compound NOT metabolized”. For the same molecule, the “Bacterial Biotransformation” value [18] was “Compound NOT metabolized”, the “Bacterial Biotransformation” value [13] was “Compound NOT metabolized” and the “Bacterial Biotransformation” value [14] was “Compound NOT metabolized”. For the same molecule, the “Bacterial Biotransformation” value [15] was “Compound NOT metabolized”.
